{
  "source": "patent US20250034158A1",
  "about": "“TEXAPHYRIN DERIVATIVES FOR MANGANESE CHEMOTHERAPY, PHOTOACOUSTIC IMAGING, AND PHOTOTHERMAL THERAPY” (BOARD OF REGENTS, THE UNIVERSITY OF TEXAS SYSTEM, priority 2020, published 2025)",
  "key": {"[1]": {"tested_on": "C4-2 tumor", "assay": "In vivo stability of PA signal after direct injection at the tumor site", "parameters": "species or system mouse", "settings": "250 μM, 50 μL, 0.625 μmol/kg, direct injection into tumor, 0-60 min", "description": "Laser light was used to illuminate the tumor during data collection: 800 nm, 20 mJ for ICG and 725 nm, 20 mJ for MMn.\nLaser wavelength: 800 nm, Laser fluence: 20 mJ/cm^2. Percentage of PA signal after 1 hour=46%\nLaser wavelength: 725 nm, Laser fluence: 20 mJ/cm^2. Percentage of PA signal after 1 hour=91%\n(§1) Male BALB/c nude mice (18±2 g, 4-6 weeks old) were purchased from a commercial source and used according to standard animal guidelines for the care and use of laboratory animals with appropriate ethical oversight board approval.\nHuman prostate cancer cell lines C4-2 were purchased from commercial sources and cultured in Dulbecco's Modified Eagle Medium (DMEM) (Life Technologies, NY, USA) supplemented with 10% fetal bovine serum (FBS; Cyclone, UT, USA). […]\n(§2) An optical parametric oscillator (OPO) laser source (Innolas GmbH, Bonn, Germany) emitting 8 ns pulsed lasers was coupled to a multimode optical fiber with a 1500 μm core diameter for the photoacoustic signal excitation. […] This led to the vibration of the tissue, which generated ultrasonic waves that could be recorded by a commercial 128-element linear array transrectal ultrasound transducer. […]\nTo confirm the in vivo stability of MMn for PA imaging, MMn was injected directly at the tumor site and the PA signal was measured over time (0-60 mins) with concurrent US imaging. […]"}, "[2]": {"assay": "Photostability under photoirradiation (UV-Vis absorption over time)", "type": "physicochemical", "settings": "fluence ~18 mJ/cm^2", "description": "Measurements were taken at 5-minute intervals. Fluence: 20 mJ/cm^2. Laser wavelength: 780 nm.\nMeasurements were taken at 5-minute intervals. Fluence: 20 mJ/cm^2. Laser wavelength: 725 nm.\nMeasurements were taken at 5-minute intervals. Fluence: 20 mJ/cm^2. Laser wavelength: 740 nm.\nPhotostability is also relevant factor to consider for a potential PA contrast agent for clinical applications."}, "[3]": {"tested_on": "C4-2 tumor", "assay": "In vivo PA imaging, prostate tumor mouse model, tail vein injection", "settings": "500 μM, 200 μL, 5 μmol/kg, after 24 h", "description": "as §1\nHuman prostate cancer cell lines C4-2 were purchased from commercial sources and cultured in Dulbecco's Modified Eagle Medium (DMEM) (Life Technologies, NY, USA) supplemented with 10% fetal bovine serum (FBS; Cyclone, UT, USA). Cells were incubated at 37° C. in a humidified atmosphere containing 5% CO2. For C4-2 tumor inoculation, C4-2 cells (˜1×10^6) suspended in PBS were injected under the nude mice epidermis of the right flank. Animals were observed every day for any behavioral abnormalities. […]\nas §2\nTo test further the PA imaging potential of MMn, in vivo experiments were performed using a prostate tumor mouse model as shown in FIG. 19. […] Normalized PA intensity values were then calculated. […]"}},
  "data": [
    {"smiles": "CC1(C)C(/C=C/C=C/C=C/C=C2\\N(CCCCS(=O)(=O)O)c3ccc4ccccc4c3C2(C)C)=[N+](CCCCS(=O)(=O)[O-])c2ccc3ccccc3c21", "note": "[ICG, Indocyanine green]", "values": [
      {"measurement": "PA signal remaining at tumor site after 1 hour", "setting": "[1]", "result": 46, "unit": "%"},
      {"measurement": "change in absorption at 780 nm over photoirradiation", "setting": "[2]; 40 μM, 30 minutes", "result": 90, "unit": "%"},
      {"measurement": "photostability upon photoirradiation", "setting": "[2]; ICG: 100 μM, 20 minutes, 780 nm", "result": "poor photostability"},
      {"measurement": "increase in normalized PA signal intensity at the tumor site relative to pre-injection", "setting": "[3]", "result": "No significant increase"}
    ]}
  ]
}
